Data: patent US20240209028A1, “CNP COMPOUNDS” (priority 2022, published 2024)
Starred links: 1 amine or outer side, 2 acyl side, 3 side chain; linkers in the order of their positions; H or OH if unused. Positions of bridges follow the written chain, without caps; N, C: chain ends. Residues, ends and D or L forms follow the SMILES beside them. *: point of attachment. C18 diacid = O=C(O)CCCCCCCCCCCCCCCCC(=O)*; γGlu = O=C(O)[C@H](CCC(=O)[*:2])N[*:1]; AEEA = NCCOCCOCC(=O)O

Key:
neprilysin (NEP) = neprilysin (NEP) (Homo sapiens, UniProt P08473); experiment: In vitro neprilysin stability; conditions: recombinant human neprilysin (rhNEP), pH 7.4
neprilysin (NEP), sequence (P08473 whole entry): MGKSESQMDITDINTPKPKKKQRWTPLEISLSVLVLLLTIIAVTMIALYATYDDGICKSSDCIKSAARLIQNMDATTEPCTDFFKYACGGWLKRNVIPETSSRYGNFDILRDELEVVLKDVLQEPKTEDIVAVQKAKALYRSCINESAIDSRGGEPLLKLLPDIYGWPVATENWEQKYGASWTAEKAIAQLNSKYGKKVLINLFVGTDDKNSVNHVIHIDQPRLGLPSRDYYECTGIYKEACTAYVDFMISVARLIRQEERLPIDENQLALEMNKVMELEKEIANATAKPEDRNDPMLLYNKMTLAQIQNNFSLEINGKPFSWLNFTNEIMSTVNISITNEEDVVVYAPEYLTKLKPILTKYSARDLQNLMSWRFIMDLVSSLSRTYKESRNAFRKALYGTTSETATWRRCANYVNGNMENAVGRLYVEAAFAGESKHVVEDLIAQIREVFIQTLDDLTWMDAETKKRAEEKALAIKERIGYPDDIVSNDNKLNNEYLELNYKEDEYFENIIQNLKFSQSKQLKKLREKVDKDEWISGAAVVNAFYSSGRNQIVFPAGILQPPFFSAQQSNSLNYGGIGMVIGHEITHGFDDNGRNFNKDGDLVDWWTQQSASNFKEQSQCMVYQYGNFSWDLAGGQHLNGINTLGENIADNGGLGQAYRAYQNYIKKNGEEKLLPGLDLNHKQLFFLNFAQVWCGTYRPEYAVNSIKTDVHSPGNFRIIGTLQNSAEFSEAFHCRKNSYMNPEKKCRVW
Procedure: Therefore, an in vitro neprilysin stability assay was set up to test the neprilysin mediated degradation of selected CNP compounds.
Procedure: In short, the assay buffer consisted of PBS-buffer (pH 7.4, ThermoFisher Scientific) with a final concentration of 0.005% v/v tween 20 (Sigma-Aldrich). Recombinant human neprilysin (rhNEP; R&D Systems) and the CNP compounds were dissolved in assay buffer. Native CNP22 (0065, Chem. 1) was included as positive control on each day of incubation. Initially, the CNP compound (the final concentration was 1000 nM) was pre-incubated in assay buffer for 10 min at 37° C. The assay was started by adding either rhNEP (final concentration was 2 μg protein per mL) or assay buffer (adsorption experiment) and the incubation was conducted at 37° C. […] The mixture was centrifuged at 13000 rpm at 4° C. for 20 minutes. After centrifugation, one volume of supernatant was mixed with one volume of Milli-Q water.
Analysis by LCMS: The mixture was analysed by LCMS using an Acquity UPLC Peptide CSH C18 analytical column from Waters (130 Å, 1.7 μm, 1*50 mm) operated at 60° C. A gradient elution was conducted with a Nexera UHPLC system (Shimadzu) using mobile phase A (consisting of Milli-Q water with 0.1% formic acid) and mobile phase B (consisting of acetonitrile with 0.1% formic acid). The flow was 0.3 ml/min. A zenoTOF 7600 mass spectrometer (Sciex) was used as detector and operated in positive electrospray ionisation mode. Data was recorded in full scan mode (m/z 300-1700).
Calibration curves were prepared in assay buffer and treated as study samples. These samples were used for calculating the concentration of the relevant CNP compound in the in vitro samples. Quality control samples were included. For at least 75% of the standards and QCs, the deviation between nominal and calculated concentration was below 20%.
All incubations were conducted in duplicate. Data was reported as percent remaining at 90 min (based on calculated concentrations) compared to the average concentration in the 0.5-minute time point samples.

[1] = Local tolerance of CNP compounds in rats (s.c. injection, histopathology); type: in vivo, Sprague Dawley rat; conditions: for assessment for human subcutaneous administration: based on rat local tolerance
Procedure: The purpose of this study was to evaluate the local tissue reaction to subcutaneous injection of CNP compounds in rats.
Procedure: The CNP compounds were formulated according to the principles described in General Methods of Preparation-Method G. Each Sprague Dawley rat (male, 10-11 weeks of age at arrival, Janvier, France) was dosed s.c. with 250 or 350 uL of the same compound (formulation concentration of 1000 nmol/mL) 120 h prior to tissue collection resulting in a total of two injections for each animal (Table 15). Injection site (flank or neck) was alternated across animals within each group and time point.
Animals had access to tap water and food (Altromin 1324) ad libitum. Group size was n=3 for vehicles and positive control, and n=4 for test compounds. Vehicles and compounds were formulated in either 5 mM sodium acetate, 250 mM glycerol, pH 4.0 or 8 mM sodium phosphate, 250 mM glycerol, pH 7.4 as shown in Table 16.
The animals were anesthetized with isoflurane. Via an electric shaving machine, a squared area of fur (2 cm×2 cm) was removed either from the rats' neck or flank area). For dosing, a new injection needle (25G canula, 1 ml syringe) was placed in the middle of the square border closest to the animal's head and the needle was inserted into the skin from the border towards the center of the square. […] On the day of tissue collection, the rats were deeply anaesthetized with isoflurane and euthanized by exsanguination. The injection sites were inspected and scored with regards to pathological lesions. The injection sites were evaluated, and any changes were noted (location, colour, shape and size), and sampled for histology preparation.
The injection sites were removed and fixed in 4% phosphate buffered neutral formaldehyde in sealed plastic containers.
Each injection site was subsequently cut into three sections 0.8 cm, 1.0 cm and 1.2 cm from the square border where the injection needle was placed, and, respectively, these sections represented the injection sites and the adjacent tissue. The tissue was processed, embedded in paraffin and cut in 2-4 μm thin sections, stained with the haematoxylin and eosin (H&E), and evaluated microscopically with a light microscope. Histopathological changes were graded on a 5-level scale (Minimal (Min), Mild (Mil), Moderate (Mod), Marked (Mar) and Severe (Sev)).

mouse metatarsal bones = experiment: Mouse metatarsal bone dissection and culture (ex vivo bone growth); type: cell-based, mouse (NMRI); conditions: 100 nM, n=8
Procedure: The purpose of this study was to evaluate bone growth after administration of CNP compounds in an ex vivo mouse model.
Procedure: One-day old mouse pups (NMRI, Javier Labs France) were euthanised prior to dissection. All applicable international and internal Novo Nordisk guidelines for care and use of animals were followed. The three middle metatarsal bones were dissected out from each hind paw. The dissected bones were placed in 24-well cell culture plates and cultured in 400 μl a-Minimum Essential Media supplemented with 0.2% BSA, 1% Pen/Strep at 37° C. and 5% CO2. The bones from all animals were randomised into a control group and six CNP compound-treated groups (100 nM; n=8). The medium was changed every 2-3 days. All compounds were formulated according to the principles described in General Methods of Preparation—Method G. Compounds 9435 and 9483 were formulated in A) 5 mM sodium acetate, 250 mM glycerol, pH 4.0 while compounds 9384, 9407, 9480 and 9482 were formulated in B) 8 mM sodium phosphate, 250 mM glycerol, pH 7.4.
Digital pictures were captured on day 0, 4, 7, 11, and 14 using a digital camera attached to a Nikon microscope. The length of each metatarsal bone was measured using ImageJ software and increase in bone length was expressed as percentage change from the length measured at the day of dissection (Mean (SD)).
In Table 27, metatarsal bones were isolated from mice and cultured for up to 14 days. Length was measured every 3-4 days throughout the study and expressed as percentage change from day 0 (Mean (SD)). Statistically significant differences are indicated compared to control group (two-way ANOVA).

[2] = 5 days after subcutaneous injections in the rat

Compound | remaining at 1.5 h, 1000 nM (neprilysin (NEP)) [%] | local subcutaneous necrosis ([1]; rat, in vivo, sc) | local subcutaneous necrosis [1, 2] | assessment for human subcutaneous administration [1] | Increase in bone length, mean (%) change from day 0 (mouse metatarsal bones; day 4 in culture) [%] | Increase in bone length, mean (%) change from day 0 (mouse metatarsal bones; day 7 in culture) [%] | Increase in bone length, mean (%) change from day 0 (mouse metatarsal bones; day 11 in culture) [%] | Increase in bone length, mean (%) change from day 0 (mouse metatarsal bones; day 14 in culture) [%]
CC[C@H](C)[C@@H]1NC(=O)[C@H](CCCNC(=N)N)NC(=O)[C@H](CC(=O)O)NC(=O)[C@H](CC(C)C)NC(=O)[C@@H]2CCCN2C(=O)[C@H](CC(C)C)NC(=O)CNC(=O)[C@H](Cc2ccccc2)NC(=O)[C@@H](NC(=O)CNC(=O)[C@H](CCC(N)=O)NC(=O)[C@H](CO)NC(=O)CNC(=O)CNC(=O)[C@H](CCCCN)NC(=O)[C@H](CCCCN)NC(=O)[C@H](CCC(N)=O)NC(=O)[C@H](C)NC(=O)CNC(=O)[C@H](CCCCN)NC(=O)[C@H](Cc2ccc(O)cc2)NC(=O)COCCOCCNC(=O)COCCOCCNC(=O)COCCOCCNC(=O)COCCOCCNC(=O)CC[C@H](NC(=O)CC[C@H](NC(=O)CCCCCCCCCCCCCCCCC(=O)O)C(=O)O)C(=O)O)CSSC[C@@H](C(=O)O)NC(=O)CNC(=O)[C@H](CC(C)C)NC(=O)CNC(=O)[C@H](CO)NC(=O)[C@H](CC(C)C)NC(=O)[C@H](CO)NC(=O)CNC1=O [Compound 9435] ({C18 diacid-γGlu-γGlu-AEEA-AEEA-AEEA-AEEA}-YKGAQKKGGSQGCFGLPLDRIGSLSGLGC-OH; disulfide 13-29) | 93.2 | – | – | – | – | – | – | –
CC[C@H](C)[C@@H]1NC(=O)[C@H](CCCNC(=N)N)NC(=O)[C@H](CCC(=O)O)NC(=O)[C@H](CC(C)C)NC(=O)[C@H](CCCCN)NC(=O)[C@H](CC(C)C)NC(=O)CNC(=O)[C@H](Cc2ccccc2)NC(=O)[C@@H](NC(=O)CNC(=O)[C@H](CCCCN)NC(=O)[C@H](CO)NC(=O)[C@H](CC(C)C)NC(=O)CNC(=O)[C@H](CCCCN)NC(=O)[C@H](CCCCN)NC(=O)[C@H](CCC(N)=O)NC(=O)[C@H](C)NC(=O)CNC(=O)[C@H](CCCCN)NC(=O)[C@H](Cc2ccc(O)cc2)NC(=O)[C@H](CCCCN)NC(=O)[C@H](CCCNC(=N)N)NC(=O)[C@H](C)NC(=O)COCCOCCNC(=O)COCCOCCNC(=O)CC[C@H](NC(=O)CCCCCCCCCCCCCCCCC(=O)O)C(=O)O)CSSC[C@@H](C(=O)O)NC(=O)CNC(=O)[C@H](CC(C)C)NC(=O)CNC(=O)[C@H](CO)NC(=O)[C@H](CC(C)C)NC(=O)[C@H](CO)NC(=O)CNC1=O [compound 0776] ({C18 diacid-γGlu-AEEA-AEEA}-ARKYKGAQKKGLSKGCFGLKLERIGSLSGLGC-OH; disulfide 16-32) | – | moderate to marked | – | – | – | – | – | –
CC[C@H](C)[C@@H]1NC(=O)[C@H](CCCNC(=N)N)NC(=O)[C@H](CC(=O)O)NC(=O)[C@H](CC(C)C)NC(=O)[C@@H]2CCCN2C(=O)[C@H](CC(C)C)NC(=O)CNC(=O)[C@H](Cc2ccccc2)NC(=O)[C@@H](NC(=O)CNC(=O)[C@H](CO)NC(=O)[C@H](CO)NC(=O)[C@@H](NC(=O)CNC(=O)[C@@H](NC(=O)[C@H](Cc2c[nH]cn2)NC(=O)[C@H](CCC(N)=O)NC(=O)[C@H](C)NC(=O)CNC(=O)[C@H](Cc2c[nH]cn2)NC(=O)[C@H](Cc2ccc(O)cc2)NC(=O)[C@H](CCCCN)NC(=O)[C@H](CCCNC(=N)N)NC(=O)[C@H](C)NC(=O)COCCOCCNC(=O)COCCOCCNC(=O)CC[C@H](NC(=O)CCCCCCCCCCCCCCCCC(=O)O)C(=O)O)[C@@H](C)O)C(C)C)CSSC[C@@H](C(=O)O)NC(=O)CNC(=O)[C@H](CC(C)C)NC(=O)CNC(=O)[C@H](CO)NC(=O)[C@H](CC(C)C)NC(=O)[C@H](CO)NC(=O)CNC1=O [compound 1351] ({C18 diacid-γGlu-AEEA-AEEA}-ARKYHGAQHTGVSSGCFGLPLDRIGSLSGLGC-OH; disulfide 16-32) | – | – | no or mild | acceptable | – | – | – | –
CC[C@H](C)[C@@H]1NC(=O)[C@H](CCCNC(=N)N)NC(=O)[C@H](CC(=O)O)NC(=O)[C@H](CC(C)C)NC(=O)[C@@H]2CCCN2C(=O)[C@H](CC(C)C)NC(=O)CNC(=O)[C@H](Cc2ccccc2)NC(=O)[C@@H](NC(=O)CNC(=O)[C@H](CCCCN)NC(=O)[C@H](CO)NC(=O)[C@@H](NC(=O)CNC(=O)[C@@H](NC(=O)[C@H](Cc2c[nH]cn2)NC(=O)[C@H](CCC(N)=O)NC(=O)[C@H](C)NC(=O)CNC(=O)[C@H](Cc2c[nH]cn2)NC(=O)[C@H](Cc2ccc(O)cc2)NC(=O)[C@H](CCCCN)NC(=O)[C@H](CCCNC(=N)N)NC(=O)[C@H](C)NC(=O)COCCOCCNC(=O)COCCOCCNC(=O)CC[C@H](NC(=O)CC[C@H](NC(=O)CC[C@H](NC(=O)CCCCCCCCCCCCCCCCC(=O)O)C(=O)O)C(=O)O)C(=O)O)[C@@H](C)O)C(C)C)CSSC[C@@H](C(=O)O)NC(=O)CNC(=O)[C@H](CC(C)C)NC(=O)CNC(=O)[C@H](CO)NC(=O)[C@H](CC(C)C)NC(=O)[C@H](CO)NC(=O)CNC1=O [compound 1420] ({C18 diacid-γGlu-γGlu-γGlu-AEEA-AEEA}-ARKYHGAQHTGVSKGCFGLPLDRIGSLSGLGC-OH; disulfide 16-32) | – | – | no or mild | acceptable | – | – | – | –
CC[C@H](C)[C@@H]1NC(=O)[C@H](CCCNC(=N)N)NC(=O)[C@H](CC(=O)O)NC(=O)[C@H](CC(C)C)NC(=O)[C@@H]2CCCN2C(=O)[C@H](CC(C)C)NC(=O)CNC(=O)[C@H](Cc2ccccc2)NC(=O)[C@@H](NC(=O)CNC(=O)[C@H](CCC(N)=O)NC(=O)[C@H](CO)NC(=O)[C@H](CO)NC(=O)CNC(=O)[C@H](CCCCN)NC(=O)[C@H](CCCCN)NC(=O)[C@H](CCC(N)=O)NC(=O)[C@H](C)NC(=O)CNC(=O)[C@@H]2CCCN2C(=O)[C@H](C)NC(=O)[C@H](CCC(N)=O)NC(=O)CNC(=O)COCCOCCNC(=O)COCCOCCNC(=O)CC[C@H](NC(=O)CCCCCCCCCCCCCCCCC(=O)O)C(=O)O)CSSC[C@@H](C(=O)O)NC(=O)CNC(=O)[C@H](CC(C)C)NC(=O)CNC(=O)[C@H](CO)NC(=O)[C@H](CC(C)C)NC(=O)[C@H](CO)NC(=O)CNC1=O [compound 9384] ({C18 diacid-γGlu-AEEA-AEEA}-GQAPGAQKKGSSQGCFGLPLDRIGSLSGLGC-OH; disulfide 15-31; C-terminus assumed) | – | – | no or mild | acceptable | 33.6 | 42.6 | 50.1 | 54.4
CC[C@H](C)[C@@H]1NC(=O)[C@H](CCCNC(=N)N)NC(=O)[C@H](CC(=O)O)NC(=O)[C@H](CC(C)C)NC(=O)[C@@H]2CCCN2C(=O)[C@H](CC(C)C)NC(=O)CNC(=O)[C@H](Cc2ccccc2)NC(=O)[C@@H](NC(=O)CNC(=O)[C@H](CCC(N)=O)NC(=O)[C@H](CO)NC(=O)[C@H](CC(C)C)NC(=O)CNC(=O)[C@H](CCCCN)NC(=O)[C@H](CCCCN)NC(=O)[C@H](CCC(N)=O)NC(=O)[C@H](C)NC(=O)CNC(=O)[C@H](CCCCN)NC(=O)[C@H](Cc2ccc(O)cc2)NC(=O)[C@H](CCCCN)NC(=O)[C@H](CCCNC(=N)N)NC(=O)[C@H](C)NC(=O)COCCOCCNC(=O)COCCOCCNC(=O)COCCOCCNC(=O)COCCOCCNC(=O)CC[C@H](NC(=O)CC[C@H](NC(=O)CC[C@H](NC(=O)CC[C@H](NC(=O)CC[C@H](NC(=O)CCCCCCCCCCCCCCCCC(=O)O)C(=O)O)C(=O)O)C(=O)O)C(=O)O)C(=O)O)CSSC[C@@H](C(=O)O)NC(=O)CNC(=O)[C@H](CC(C)C)NC(=O)CNC(=O)[C@H](CO)NC(=O)[C@H](CC(C)C)NC(=O)[C@H](CO)NC(=O)CNC1=O [compound 9407] ({C18 diacid-γGlu-γGlu-γGlu-γGlu-γGlu-AEEA-AEEA-AEEA-AEEA}-ARKYKGAQKKGLSQGCFGLPLDRIGSLSGLGC-OH; disulfide 16-32) | – | – | no or mild | acceptable | 35.1 | 45.4 | 53.2 | 55.8
